Assays:
[1] = Tail tip bleeding time in uninjured rats; type: in vivo, rat; conditions: for effect on bleeding time: same infusion dose
Experimental: Bleeding times were measured using tail tip bleeding as described (Lorrain et al., 2003).

[2] = tested on: rats with spinal cord injury (SCI); experiment: Rat cervical SCI model: hemorrhage / extravasated blood in cord; type: in vivo; conditions: 200 ng/h s.q.
Experimental: Constant infusion of a low-dose of drug was used to achieve sustained occupancy of only high-affinity receptors.
(§1) SCI injury model. This study was performed in accordance with the guidelines of the Institutional Animal Care and Use Committee. Adult female Long-Evans rats (275-350 gm) were anesthetized (Ketamine, 60 mg/kg plus Xylazine, 7.5 mg/kg, i.p.). The dura at C4-5 was exposed via a left hemilaminectomy. A hemi-cervical spinal cord contusion was created using a blunt force impactor (1.3-mm impactor head driven by a 10 gm weight dropped vertically 25 mm) (Soblo sky et al., 2001; Gensel et al., 2006). After SCI, animals were given 10 ml of glucose-free normal saline s.q. Rectal temperature was maintained at ˜37° C. using a servo-controlled warming blanket. Blood gases and serum glucose 10-15 min post-SCI were: pO2, 95±6 mm Hg; pCO2, 46±3 mm Hg; pH, 7.33±0.01; glucose 258±17 mg/dl in controls and pO2, 96±7 mm Hg; pCO2, 45±2 mm Hg; pH, 7.37±0.01; glucose 242±14 mg/dl in glibenclamide-treated animals.
(§2) Drug delivery. […] During the course of the project, slightly different formulations of drug were used, with the best results obtained using stock solutions made by placing 50 mg (or 25 mg) of drug into 10 ml DMSO, and infusion solutions made by placing 400 μl (or 800 μl) stock into 4.6 ml (or 4.2 ml) unbuffered saline (0.9% NaCl) and adjusting the pH to ˜8.5 using 0.1 N NaOH.
For in vivo gene suppression of SUR1, we used oligodeoxynucleotides that were phosphorothioated at 4 distal bonds to protect against endogenous nucleases (35). Within a few min of SCI, mini-osmotic pumps (Alzet 2002, 0.5 μl/h; Durect Corporation) with jugular vein catheters were implanted that delivered either scrambled sequence ODN (Scr-ODN) (5′-[…]-3′; SEQ ID NO:1) or antisense ODN (AS-ODN) (5′-[…]-3′; SEQ ID NO:2) (Yokoshiki et al., 1999) in PBS at a rate of 1 mg/rat/24 h.
Tissue blood. Rats were sacrificed at various times after SCI (n=5-11 rats/group), were perfused with heparinized saline to remove intravascular blood, and 5-mm segments of cord encompassing the lesion were homogenized and processed as described (Choudhri et al., 1997).

[3] = tested on: rodent models of ischemic stroke; conditions: cited from earlier work
[4] = in humans; cited from earlier work
[5] = male, Long-Evans, rat, in vivo
Text: Young adult male Long-Evans rats, 240-280 gm, were studied. Rats were anesthetized (Ketamine and Xylazine) and physiological parameters including temperature and blood gases were maintained within appropriate physiological ranges. With the head fixed in a stereotaxic frame, a 6-mm circular craniectomy was created abutting the sagittal and lambdoidal sutures. A posterior location was chosen to emphasize damage to underlying hippocampus (Vink et al., 2001; Floyd et al., 2002). […] Sham controls underwent craniectomy without percussion.

[6] = rat, in vivo
Experimental: as §1, §2

[7] = model of malignant cerebral edema

COc1ccc(Cl)cc1C(=O)NCCc1ccc(S(=O)(=O)NC(=O)NC2CCCCC2)cc1 [glibenclamide]
tail bleeding time ([1]; n=3-5, P=0.6): 21.5 ± 3.1 s
effect on bleeding time [1]: no effect
effect on bleeding time ([1]; listed as Glibenclamide): did not affect
hemorrhage in cord on inspection ([2]; 24 h post-SCI, vs vehicle): visibly less hemorrhage
extravasated blood in tissue homogenates ([2]; during the 24 h after SCI): little increase in extravasated blood
reduction of cerebral edema (excess water) [3, 7]: half
reduction of mortality [3, 7]: half
reduction of lesion volume ([3]; stroke induced by thromboemboli): half
volume of distribution [4]: 0.2 L/kg
time required to achieve 90% steady-state serum drug levels [5]: 3 h
serum glucose [6]: 242 ± 14 mg/dL
